Results from patent US8389567B2, “Compounds that modulate intracellular calcium” (Calcimedica, Inc., priority 2007, dated 2013).

Columns and labels:
[1] = system: store-operated calcium entry in HEK-Zeo control cells; settings: read-out: IC50 for inhibition of calcium entry, thapsigargin store depletion, readdition of external calcium, pre-incubation with increasing doses
Procedure: (§1) To test whether the Ca^2+ entry pathway constitutively activated by STIM 1 overexpression is pharmacologically similar to endogenous SOCE, HEK[STIM1] cells are pre-incubated with increasing doses of 2-APB and STIM1-induced Ca^2+ entry is measured.

[2] = system: STIM1-induced Ca2+ entry in HEK[STIM1] cells
Procedure: as §1

[3] = system: store-operated calcium entry in HEK[STIM1] cells; settings: read-out: IC50 for inhibition of calcium entry, thapsigargin store depletion, readdition of external calcium, pre-incubation with increasing doses
Procedure: as §1

Structure (SMILES): NCCOB(c1ccccc1)c1ccccc1 [Compound 2-APB, 2-aminoethoxydiphenyl borate]
- IC50 [1]: 11.8 µM
- effect on calcium entry at lower concentrations ([2]; absence of store depletion, lower concentrations of 2-APB (biphasic effect)): potentiated
- IC50 ([2]; read-out: IC50 for inhibition of constitutive calcium entry, absence of store depletion): 10.8 µM
- IC50 [3]: 10.5 µM
